Assay results as given in ChEMBL document CHEMBL5729239, “Aryl, heteroaryl, and heterocyclic compounds for treatment of immune and inflammatory disorders” (2022).

Target: Complement factor D (Homo sapiens, UniProt P00746)
Assay: Human Factor D Assay: Human Factor D (purified from human serum, Complement Technology, Inc.) at 80 nM final concentration is incubated with test compound at various concentrations for 5 min at room temperature in 50 mM Tris, 1M NaCl, pH 7.5. A synthetic substrate Z-L-Lys-SBzl and DTNB (Ellman's reagent) are added to final concentrations of 100 μM each. […] IC50 values are calculated by nonlinear regression of complement Factor D reaction rates as a function of test compound concentration.

Sequence of Complement factor D (P00746 whole entry): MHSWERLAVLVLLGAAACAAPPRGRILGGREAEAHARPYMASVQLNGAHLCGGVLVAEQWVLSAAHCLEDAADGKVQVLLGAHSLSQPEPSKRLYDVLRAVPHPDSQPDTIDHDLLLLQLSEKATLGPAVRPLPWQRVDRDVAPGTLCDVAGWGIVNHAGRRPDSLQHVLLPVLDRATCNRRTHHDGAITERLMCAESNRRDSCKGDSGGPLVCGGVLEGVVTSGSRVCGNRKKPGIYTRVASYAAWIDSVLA

Compound | IC50
CC(=O)c1nn(CC(=O)N2C[C@H](F)C[C@H]2C(=O)NCCC(C)(C)C)c2ccc(-c3cnc(C)nc3)cc12 | < 1 µM
Cc1cccc(CC(O)[C@@H]2C[C@@H](F)CN2C(=O)Cn2cc(C(N)=O)c3cc(-c4cnc5cc(C)nn5c4)ccc32)n1 (stereo partly specified) | > 10 µM
CC(=O)c1nn(CC(=O)N2C[C@H](F)C[C@H]2C(=O)Nc2cccc(-c3ccccc3Cl)c2F)c2ccc(N3C[C@H]4CCCC[C@H]4C3)cc12 | < 1 µM
NC(=O)c1cc(-c2ccco2)n(CC(=O)N2C[C@H](F)C[C@H]2C(=O)Nc2cccc(Br)n2)n1 | < 1 µM
CC(=O)c1nn(CC(=O)N2C[C@H](F)C[C@H]2C(=O)NCCOC(F)(F)F)c2ccc(-c3cnc(C)nc3)cc12 | < 1 µM
CC(=O)c1nn(CC(=O)N2C[C@H](F)C[C@H]2C(=O)O)c2ccc(-c3cnc(C)nc3)cc12 | > 10 µM
